PMC7217877, “N-AS-triggered SPMs are direct regulators of microglia in a model of Alzheimer’s disease” (Nature Communications, 2020)
Where “and” joins values, the source holds several entries; their conditions need not be identical. Identical values can stand only once.

Columns and labels:
Type in all cases: in vivo, mouse
APP/PS1 mice [1] = test: mRNA levels of inflammatory markers in cortex (real-time PCR, Fig 6j); parameters: iNOS mRNA level (Figure 6j) / IL1b mRNA level (Figure 6j) / Arg1 mRNA level (Figure 6j) / IL4 mRNA level (Figure 6j) / TGFb mRNA level (Figure 6j) / TNF-a mRNA level (Figure 6j) / IL6 mRNA level (Figure 6j): scale not given here
Procedure: (§1) Transgenic mouse lines over-expressing the hAPP695swe (APP) and presenilin-1M146V (PS1) mutations were originated from GlaxoSmithKline (Harlow, UK)[32] and maintained as described previously. We purchased 5×FAD mice from Jackson Labs (Stock number. 34840-JAX). Because APP/PS1 and 5xFAD mice show sex differences in disease progression, we used only male mice. To examine possible therapeutic effect of N-AS and aspirin in APP/PS1 mice, the N-AS (30 mg kg^−1, Sigma-Aldrich, 01912) was injected daily s.c. for 8 weeks to 7-months-old APP/PS1 mice until the age of 9 months, and aspirin (2 mg kg^−1, Sigma-Aldrich, A5376)[33] was administrated orally to 7-months-old APP/PS1 mice for 8 weeks. Also, to confirm possible therapeutic efficacy of N-AS in 5×FAD, the N-AS (30 mg kg^−1, Sigma-Aldrich, 01912) was injected daily s.c. for 4 weeks to 3-months-old 5×FAD mice until the age of 4 months. Block randomization method was used to allocate the animals to experimental groups. To eliminate the bias, we were blinded in experimental progress such as data collection and data analysis. Mice were housed at temperature of 22 °C and a 12 h day/12 h night cycle with free access to tap water and food pellets. All protocols were approved by the Kyungpook National University Institutional Animal Care and Use Committee.
For total RNA extraction from the microglia derived from WT, APP/PS1, APP/PS1 mice treated with N-AS, and APP/PS1 mice treated with aspirin, the cells were isolated from the cortex of WT, APP/PS1, APP/PS1 mice treated with N-AS, or aspirin using the methods described above. Total RNA was isolated using the kit components according to the manufacturer’s instructions (RNeasy mini kit, 74134, QIAGEN). cDNA was synthesized from 5 μg of total RNA using a commercially available kit (Takara). Quantitative real-time PCR was performed using a Corbett research RG-6000 real-time PCR instrument. Primers are described in Supplementary Table 5.

5×FAD mice = test: ThioS Aβ plaque area and plaque morphometry (Supplementary Fig 8b,c)
Procedure: Thioflavin S (Sigma-Aldrich) staining was carried out according to previously described procedures. We used 6E10 (mouse, 1:100, Signet, SIG39300), anti-20G10 (mouse, 1:1000, provided by D. R. Howlett, GlaxoSmithKline, Harlow, Essex, UK) for Aβ42, anti-G30 (rabbit, 1:1000, provided by D. R. Howlett) for Aβ40, SMA (mouse, 1:400, Sigma-Aldrich, A2547), AT8 (mouse, 1:500, Thermo Fisher Scientific, MN1020), Caspase-3 (mouse, 1:200, Novus Biologicals, NB100-56708), ac-S565 (rabbit, 1:100), COX2 (mouse, 1:250, Thermo Fisher Scientific, 35-8200), Iba1 (rabbit, 1:500, Wako, 019-19941 and goat, Abcam, ab5076), NeuN (mouse, 1:500, Millipore, MAB177), GFAP (rabbit, 1:500, Dako, N1506 and chicken, 1:500, Abcam, ab4674), and Lamp1 (mouse, 1:200, Abcam, ab24170). The sections were analyzed with a laser-scanning confocal microscope (FV3000; Olympus) or with a BX51 microscope (Olympus). MetaMorph software (Molecular Devices) was used to quantification. Three-dimensional reconstruction of microglia was recorded and analyzed using IMARIS software (Bitplane)[11]. For the analysis of age-dependent microglial COX2^+ CX3CR1^+ cells in WT and APP/PS1 mice, COX2 (rabbit, 1:100, Abcam, ab15191) and CX3CR1 (mouse, 1:100, BioLegend, 149008) antibody were used and the images were acquired on Alexa 488 and APC Channel with performed using Operetta CLS and Analysis Software 4.5 (Perkin-Elmer).
as §1

APP/PS1 mice [2] = test: fluorescent bead phagocytosis assay in live brain slices (Fig 5b); settings: APP/PS1 + N-AS, individual values
Procedure: as §1, with “Mice were housed at temperature of 22 °C and a 12 h day/12 h night cycle with free access to tap water and food pellets. All protocols were approved by the Kyungpook National University Institutional Animal Care and Use Committee.” left out
The phagocytic activity of adult microglia in the cortex of live brain slices was analyzed as following protocol. […] The sections were analyzed with a laser-scanning confocal microscope (FV3000; Olympus). MetaMorph software (Molecular Devices) was used to quantification.

APP/PS1 mice [3] = test: western blot of synaptophysin, MAP2, synapsin1, PSD95 in cortex (Supplementary Fig 7a-d); parameters: synaptophysin (western blot, cortex) / MAP2 (western blot, cortex) / synapsin1 (western blot, cortex): scale not given here
Procedure: Samples were lysed in RIPA buffer (Cell signaling Technologies), then subjected to SDS-PAGE and transferred to a nitrocellulose membrane. Membranes were blocked with 5% milk, incubated with primary antibody and then incubated with the appropriate horseradish peroxidase-conjugated secondary antibody. […] We performed densitometric quantification using the ImageJ software (National Institutes of Health). Images have been cropped for presentation.
as §1

[4] = APP/PS1 + N-AS, individual animals

CCCCCCCCCCCCC/C=C/[C@@H](O)[C@H](CO)NC(C)=O [N-AS, N-((2S,3R,E)-1,3-Dihydroxyoctadec-4-en-2-yl)acetamide]
Arg1 mRNA level (Figure 6j) (APP/PS1 mice [1]; [4]): 1.307 and 2.185 and 1.935 and 1.275 and 1.335 and 1.465
IL1b mRNA level (Figure 6j) (APP/PS1 mice [1]; [4]): 1.25 and 0.7 and 1.3 and 0.95 and 0.88 and 1.1
IL4 mRNA level (Figure 6j) (APP/PS1 mice [1]; [4]): 0.765 and 1.235 and 0.984 and 0.825
IL6 mRNA level (Figure 6j) (APP/PS1 mice [1]; [4]): 0.7652 and 0.81 and 0.821 and 0.83 and 0.957
TGFb mRNA level (Figure 6j) (APP/PS1 mice [1]; [4]): 1.79 and 2.4 and 2.595 and 2.81
TNF-a mRNA level (Figure 6j) (APP/PS1 mice [1]; [4]): 0.865 and 1.34 and 1.37 and 1.005 and 1.085
iNOS mRNA level (Figure 6j) (APP/PS1 mice [1]; [4]): 0.92 and 1.42 and 1.85 and 1.2 and 0.78 and 0.55
inflammatory response (mRNA of inflammatory markers) (APP/PS1 mice [1]; N-AS vs vehicle APP/PS1): improved
Aβ plaques by size, <25mM (5×FAD mice; 5xFAD + N-AS, sFig 8c): 92.2364 and 92.245 and 94.982 and 89.4908 and 95.585 and 93.6135
Aβ plaques by size, >50mM (5×FAD mice; 5xFAD + N-AS, sFig 8c): 5.395 and 4.6761 and 5.546 and 5.244 and 3.581 and 5.111
Aβ plaques by size, 25-50mM (5×FAD mice; 5xFAD + N-AS, sFig 8c, in % (unit assumed)): 5.341 and 4.808 and 4.956 and 5.7255 and 3.9859 and 4.882
Aβ plaque deposit and Aβ plaque phagocytosis (5×FAD mice; 5×FAD, N-AS 30 mg kg^-1 daily s.c. 4 weeks): similarly improved AD pathology of 5×FAD mice
number of microglial phagocytes normalized to the total number of microglia (APP/PS1 mice [2]): 0.002363 and 0.002382 and 0.001493 and 0.001786 and 0.001435
synaptophysin (western blot, cortex) (APP/PS1 mice [3]; APP/PS1 + N-AS, sFig 7a (sheet untitled)): 2.567 and 3.1595 and 2.9069 and 1.677 and 2.527 and 2.054
MAP2 (western blot, cortex) (APP/PS1 mice [3]; APP/PS1 + N-AS, sFig 7b (sheet untitled)): 0.7541 and 0.8231 and 0.7626 and 0.741 and 0.7343 and 0.8145
synapsin1 (western blot, cortex) (APP/PS1 mice [3]; APP/PS1 + N-AS, sFig 7c (sheet untitled)): 0.7506 and 0.7227 and 0.685 and 0.6922 and 0.6413
PSD95 (western blot, cortex) (APP/PS1 mice [3]; APP/PS1 + N-AS, sFig 7d (sheet untitled)): 0.7284 and 0.7208 and 0.6479 and 0.6548 and 0.6748 and 0.6067
expression levels of synaptophysin, MAP2, synapsin1, PSD95 (APP/PS1 mice [3]; N-AS vs APP/PS1): restored
